Results published in US20110288134A1, “COMPOSITION AND METHOD FOR TREATING FIBROSIS” (Pacific Therapeutics Ltd., priority 2008, published 2011).
Like-named read-outs stand apart in the source and are kept apart here.

What was measured:
[1] = system: TGF-β1 induced ECM accumulation in HFL1 human lung fibroblast cells; test: TGF-β1 induced monolayer extracellular matrix (ECM) accumulation assay (Sirius Red collagen) in fibronectin-coated plates; assay type: cell-based; conditions: for inhibition at 300 µM: compound alone at 300 μM (FIG. 1)
Description: The composition comprising tranilast and NAC or composition containing pirfenidone and NAC was investigated for their antifibrotic activity by employing in vitro collagen synthesis assay: the TGF-β1 induced monolayer extracellular matrix (ECM) accumulation assay in fibronectin-coated plates.
Method Human lung fibroblast cell line, HFL1, was purchased from American Type Culture Collection. Cells were maintained in FK12 medium supplemented with 10% FBS and antibiotics. Cells were trypsinized and seeded into 96-well fibronectin-coated plate as 5×10^4cells/well and cultured overnight to achieve 60-80% confluence. After a washing with PBS and serum-free medium, fresh medium supplemented with 40 pM of TGF-β1 was added in each test well. Different concentrations of tranilast, pirfenidone, NAC and their combinations were also added to some test wells. The plates were left at 37° C. in a CO2 incubator for 72 h. After removing medium cells were fixed to the plate with 0.5% glutaraldehyde for 30 minutes at room temperature. Cells were washed and treated with 0.5M acetic acid for 30 minutes. After washing cells with distilled water 250 µl of Sirius Red was added for 2 hours. Dye was removed and cells were washed with distilled water. Sirius Red was eluted with 200 ul 0.1 N sodium hydroxide, and the optical density at 540 nm was determined using a Molecular Dynamics spectrophotometer.

[2] = cited from earlier work
[3] = doses of up to 600 mg/day for at least 3 months, many years of clinical use; cited from earlier work
[4] = HFL1 cells, 40 pM TGF-β1, 72 h, compound alone at 10 μM (FIG. 1)
[5] = Homo sapiens, HFL1 cells, 40 pM TGF-β1, 72 h, read-out: inhibition of TGF-β1 mediated ECM (collagen) accumulation
[6] = combination screen plate (FIG. 2A/3A), HFL1 cells, compound alone at 300 μM

## CC(=O)N[C@@H](CS)C(=O)O [NAC, N-acetyl-cysteine]
[1]; HFL1 cells, 40 pM TGF-β1, 72 h, alone at 0.1 mM (FIG. 1C)
  inhibition of TGF-β1 mediated ECM accumulation: not effective
[1]; HFL1 cells, 40 pM TGF-β1, 72 h, alone at 0.5 mM (FIG. 1C)
  inhibition of TGF-β1 mediated ECM accumulation: not effective
[1]; HFL1 cells, 40 pM TGF-β1, 72 h, alone at 1 mM (FIG. 1C)
  inhibition of TGF-β1 mediated ECM accumulation: not effective
[1]; HFL1 cells, 40 pM TGF-β1, 72 h, alone at 2 mM (FIG. 1C)
  suppression of TGF-β1 mediated ECM accumulation: 32±14%
[1]; HFL1 cells, 40 pM TGF-β1, 72 h, alone at 5 mM (FIG. 1C)
  suppression of TGF-β1 mediated ECM accumulation: 45±17%
[1]; HFL1 cells, 40 pM TGF-β1, 72 h, alone at 10 mM (FIG. 1C)
  suppression of TGF-β1 mediated ECM accumulation: 70.5±18%
[1]; Homo sapiens, HFL1 cells, 40 pM TGF-β1, 72 h, alone at 20 mM (FIG. 1C), read-out: inhibition of TGF-β1 mediated ECM accumulation
  inhibition at 20000 µM: 100%
[1]; screen plate FIG. 2A, compound alone at 2 mM
  suppression of TGF-β1 mediated collagen accumulation: 25%

## Cc1ccc(=O)n(-c2ccccc2)c1 [pirfenidone, 5-methyl-L-phenyl-2-(1H)-pyridone]
[1]; [4]
  inhibition of TGF-β1 mediated ECM (collagen) accumulation: not effective
[1]; HFL1 cells, 40 pM TGF-β1, 72 h, compound alone at 100 μM (FIG. 1)
  inhibition of TGF-β1 mediated ECM (collagen) accumulation: not effective
[1]; Homo sapiens, HFL1, screen plate FIG. 3A, compound alone at 1000 μM, read-out: anti-fibrosis activity (inhibition of TGF-β1 induced collagen accumulation)
  inhibition at 1000 µM: 100%
[1]; [5]
  inhibition at 300 µM: 22 ± 7%
[1]; Homo sapiens, HFL1 cells, 40 pM TGF-β1, 72 h, compound alone at 500 μM (FIG. 1), read-out: inhibition of TGF-β1 mediated ECM (collagen) accumulation
  inhibition at 500 µM: 33 ± 8%
[1]; Homo sapiens, HFL1 cells, 40 pM TGF-β1, 72 h, compound alone at 1000 μM (FIG. 1), read-out: inhibition of TGF-β1 mediated ECM (collagen) accumulation
  inhibition at 1000 µM: ~100%
[1]; [6]
  suppression of TGF-β1 mediated collagen accumulation: 18%
[2]; usual therapeutic dose of 1200 mg/day (Shi, Wu et al. 2007)
  plasma concentration: 100 to 1000 µM

## COc1ccc(/C=C/C(=O)Nc2ccccc2C(=O)O)cc1OC [tranilast, n-[3,4-dimethoxycinnamoyl] anthranilic acid]
[1]; 50 μM tranilast with 2 mM NAC (88%) versus tranilast alone (11%)
  shift in the potency of tranilast: 8 fold
[1]; [4]
  inhibition of TGF-β1 mediated ECM (collagen) accumulation: no significant inhibition
[1]; HFL1 cells, 40 pM TGF-β1, 72 h, compound alone at 25 μM (FIG. 1)
  inhibition of TGF-β1 mediated ECM (collagen) accumulation: no significant inhibition
[1]; HFL1 cells, 40 pM TGF-β1, 72 h, compound alone at 50 μM (FIG. 1)
  inhibition of TGF-β1 mediated ECM (collagen) accumulation: no significant inhibition
[1]; Homo sapiens, HFL1 cells, 40 pM TGF-β1, 72 h, compound alone at 100 μM (FIG. 1), read-out: inhibition of TGF-β1 mediated ECM (collagen) accumulation
  inhibition at 100 µM: 34 ± 11%
[1]; [5]
  inhibition at 300 µM: 100%
[1]; [6]
  suppression of TGF-β1 mediated collagen accumulation: 100%
[1]; screen plate FIG. 2A, compound alone at 50 μM
  suppression of TGF-β1 mediated collagen accumulation: 11%
[3]
  clinical safety and tolerability: safe and well tolerated
[2]; after oral administration of the usual therapeutic dose of 600 mg/day (Kusama et al. 1999)
  plasma concentration: 30 to 300 µM
